Here are results for eleven molecules from patent US20250049812A1, “Compounds that Inhibit Necroptosis and Their Preparation Methods” (SHANGHAI INSTITUTE OF ORGANIC CHEMISTRY, CHINESE ACADEMY OF …, priority 2021, published 2025).

This test deals with Jurkat FADD (−/−) Cells. In words: TNF-α induced necroptosis of Jurkat FADD-deficient cells (CellTiter-Glo cell survival). Format: cell-based, human. The settings on record: Homo sapiens; TNF-α induced necroptosis, Jurkat FADD-deficient cells, 13 hours, CellTiter-Glo; read-out: IC50. A digest of the protocol: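 Cells in RPMI 1640 with 10% FBS were pretreated for 1 h at 37 °C with compound (12-point threefold series from 25 μM, or 0.5 μM, in triplicate). They were then stimulated with TNFα added as a 5 ng/mL solution for 13 h. Survival was read by luminescence.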
One may read the IC50 as the point on the concentration scale where inhibition reaches its midpoint. Turning to `COCc1cccc(-c2cn3c4c(cccc24)N(C)C(=O)C(NC(=O)c2nnc(Cc4ccccc4)[nH]2)C3)c1` (racemic) [T-80, (±)-5-benzyl-N-(7-(3-(methoxymethyl)phenyl)-1-methyl-2-oxo-1,2,3,4-tetrahydro-[1,4]diazepino [3,2,1-hi]indol-3-yl)-4H-1,2,4-triazole-3-carboxamide], the IC50 was in the range of 10 to 100 nM.

On to `CN1C(=O)C(NC(=O)c2nnc(Cc3ccccc3)[nH]2)Cc2cn(-c3ncccc3C(=O)O)c3cccc1c23` (racemic) [T-46, (±)-2-(3-(5-benzyl-4H-1,2,4-triazole-3-carboxamide)-1-methyl-2-oxo-1,2,3,4-tetrahydro-6H-azacyclo [4,3,2-cd]indol-6-yl)nicotinic Acid], for which the IC50 fell in the range of 100 to 1000 nM.

Consider `CN1C(=O)C(NC(=O)c2nnc(Cc3ccccc3)[nH]2)Cc2cn(C3CC3)c3cccc1c23` (racemic) [T-23, (±)-5-benzyl-N-(6-cyclopropyl-1-methyl-2-oxo-2,3,4,6-tetrahydro-1H-azacyclo [4,3,2-cd]indol-3-yl)-4H-1,2,4-triazole-3-carboxamide], for which the IC50 lay in the range of 100 to 1000 nM.

As for `CN1C(=O)C(NC(=O)c2nnc(Cc3ccccc3)[nH]2)Cc2c[nH]c3ccc(F)c1c23` (racemic) [T-131, (±)-5-benzyl-N-(9-fluoro-1-methyl-2-oxo-2,3,4,6-tetrahydroazepincd [4,3,2-cd]indol-3-yl)-4H-1,2,4-triazole-3-carboxamide], the IC50 is less than 10 nM.

For the molecule `CN1C(=O)C(NC(=O)c2nnc(Cc3ccccc3)[nH]2)Cn2cc(-c3cccnc3)c3cccc1c32` (racemic) [T-17, (±)-5-benzyl-N-(1-methyl-2-oxo-7-(pyridin-3-yl)-1,2,3,4-tetrahydro-[1,4]diazepino [3,2,1-hi]indol-3-yl)-4H-1,2,4-triazole-3-carboxamide], the IC50 lay in the range of 10 to 100 nM.

With `CN1C(=O)C(NC(=O)c2nnc(Cc3ccccc3)[nH]2)Cc2cn(Cc3cnn(C)c3)c3cccc1c23` (racemic) [T-35, (±)-5-benzyl-N-(1-methyl-6-((1-methyl-1H-pyrazol-4-yl)methyl)-2-oxo-2,3,4,6-tetrahydro-1H-azacyclo [4,3,2-cd]indol-3-yl)-4H-1,2,4-triazole-3-carboxamide], the IC50 is less than 10 nM.

As for `CN1C(=O)C(NC(=O)c2nnc(Cc3ccccc3)[nH]2)Cn2ccc3cc(Cl)cc1c32` (racemic) [T-5, (±)-5-benzyl-N-(9-chloro-1-methyl-2-oxo-1,2,3,4-tetrahydro-[1,4]diazepino [3,2,1-hi]indol-3-yl)-4H-1,2,4-triazole-3-carboxamide], the IC50 was in the range of 100 to 1000 nM.

`COC(=O)c1ncncc1-n1cc2c3c(cccc31)N(C)C(=O)C(NC(=O)c1nnc(Cc3ccccc3)[nH]1)C2` (racemic) [T-51, (±)-5-(3-(5-benzyl-4H-1,2,4-triazole-3-carboxamide)-1-methyl-2-oxo-1,2,3,4-tetrahydro-6H-azacyclo [4,3,2-cd]indol-6-yl)pyrimidine-4-carboxylic Acid Methyl Ester]: the IC50 fell in the range of 10 to 100 nM.

On to `CN1C(=O)C(NC(=O)c2nnc(Cc3ccccc3)[nH]2)Cc2cn(-c3ccnn3C)c3cccc1c23` (racemic) [T-36, (±)-5-benzyl-N-(1-methyl-6-(1-methyl-1H-pyrazol-5-yl)-2-oxo-2,3,4,6-tetrahydro-1H-azacyclo [4,3,2-cd]indol-3-yl)-4H-1,2,4-triazole-3-carboxamide], for which the 50% inhibitory concentration (IC50) was less than 10 nM.

Take `COCc1ccncc1-n1cc2c3c(cccc31)N(C)C(=O)C(NC(=O)c1nnc(Cc3ccccc3)[nH]1)C2` (racemic) [T-42, (±)-5-benzyl-N-(6-(4-(methoxymethyl)pyridin-3-yl)-1-methyl-2-oxo-2,3,4,6-tetrahydro-1H-azacyclo [4,3,2-cd]indol-3-yl)-4H-1,2,4-triazole-3-carboxamide]: the IC50 was less than 10 nM.

For the molecule `CC(C#N)Cn1cc2c3c(cccc31)N(C)C(=O)C(NC(=O)c1nnc(Cc3ccccc3)[nH]1)C2` (racemic) [T-27, (±)-5-benzyl-N-(6-(2-cyanopropyl)-1-methyl-2-oxo-2,3,4,6-tetrahydro-1H-azacyclo [4,3,2-cd]indol-3-yl)-4H-1,2,4-triazole-3-carboxamide], the half-inhibitory concentration (IC50) lay in the range of 10 to 100 nM.
